Read-outs that look alike come from different tables or passages of the source.
Experiments:
[1] = tested on: skin of each patient; assay: skin patch testing with the first 28 common test materials (Example 2); settings: of 15 symptomatic patients (IBS or IBS-like symptoms)
[2] = tested on: skin of each patient; settings: human, in vivo, 48 h

patients with a positive patch test [2] | SMILES | patients with a positive patch test [1]
– | O=C(OOC(=O)c1ccccc1)c1ccccc1 [benzoyl peroxide] | 1
– | C=C(C)[C@H]1CC=C(C)CC1 [dipentene] | 1
1 | CCCCCCCCCCCCOC(=O)c1cc(O)c(O)c(O)c1 [dodecyl gallate] | –

Reference: US20250235148A1, “IBS RELATED TESTING AND TREATMENT” (IBS-80, LLC, priority 2021, published 2025)
